Assay results published in patent US20230159527A1, “COMPOUNDS AS BCL-2 INHIBITORS” (Fochon Pharmaceuticals, Ltd., priority 2020, published 2023).
pIC50: −log10 of the molar value.

Key:
Format in all cases: cell-based
[1] = tested on: RS4;11 cells; experiment: Cell proliferation assay, RS4;11 cells (MTS, 72 h); conditions: Homo sapiens, RS4;11 cell proliferation
Method in brief: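 RS4;11 cells (30000/well, RPMI-1640 plus 10% FBS) treated with compounds at 1.5-10000 nM for 72 h at 37° C, 5% CO2. Viability by MTS (2 h), absorbance at 490 nm with 650 nm reference; IC50 from proliferation inhibition.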

[2] = tested on: Toledo cells; experiment: Cell proliferation assay, Toledo cells (MTS, 72 h); conditions: Homo sapiens, Toledo cells, MTS, read-out: Toledo IC50
Method in brief: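 IC50 was derived from 490 nm absorbance after a 2 h MTS step. Before that, compounds at 1.5–10000 nM final (nine points) acted on Toledo cells for 72 h at 37 °C, 5% CO2. Cells were seeded at 30000/well in 10% FBS RPMI-1640 and rested 4 h before dosing.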

[3] = tested on: DoHH2 cells; experiment: Cell proliferation assay, DoHH2 cells (MTS, 120 h); conditions: Homo sapiens, DOHH-2
Method in brief: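 DoHH2 cells in RPMI-1640 with 10% FBS were plated at 5000/well and rested 4 h. They were then exposed to compound at nine final concentrations (10000 to 1.5 nM) for 120 h at 37 °C. Viability was read by MTS (2 h, A490) and IC50 derived by curve fitting.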

SMILES | pIC50 [1] | pIC50 [2] | pIC50 [3]
CN1CCN(C2CC3(CCN(c4ccc(C(=O)NS(=O)(=O)c5cnc(NC[C@H]6CC[C@](C)(O)CC6)c([N+](=O)[O-])c5)c(Oc5cnc6[nH]ccc6c5)c4)CC3)C2)[C@H](c2ccccc2C2CC2)C1 (single isomer, unassigned) [Example A-40, 2-((1H-pyrrolo[2,3-b]pyridin-5-yl)oxy)-4-(2-((R or S)-2-(2-cyclopropylphenyl)-4-methylpiperazin-1-yl)-7-azaspiro[3.5]nonan-7-yl)-N-((6-((((1r,4r)-4-hydroxy-4-methylcyclohexyl)methyl)amino)-5-nitropyridin-3-yl)sulfonyl)benzamide] | ≥ 9.00 | 9.00 | ≥ 9.00
CC(C)c1ccccc1[C@H]1CCCN1C1CC2(CCN(c3ccc(C(=O)NS(=O)(=O)c4cnc(NC[C@H]5CC[C@@](C)(O)CC5)c([N+](=O)[O-])c4)c(Oc4cnc5[nH]ccc5c4)c3)CC2)C1 [Example A-7a, 2-((1H-pyrrolo[2,3-b]pyridin-5-yl)oxy)-N-((6-((((1s,4s)-4-hydroxy-4-methylcyclohexyl)methyl)amino)-5-nitropyridin-3-yl)sulfonyl)-4-(2-((R)-2-(2-isopropylphenyl)pyrrolidin-1-yl)-7-azaspiro[3.5]nonan-7-yl)benzamide] | ≥ 9.00 | 9.00 | ≥ 9.00
CC1(O)CCC(CNc2ncc(S(=O)(=O)NC(=O)c3ccc(N4CCC5(CC4)CC(N4CCOC[C@H]4c4ccccc4C4CC4)C5)cc3Oc3cnc4[nH]ccc4c3)cc2[N+](=O)[O-])CC1 (single isomer, unassigned) [Example A-34, (R or S)-2-((1H-pyrrolo[2,3-b]pyridin-5-yl)oxy)-4-(2-(3-(2-cyclopropylphenyl)morpholino)-7-azaspiro[3.5]nonan-7-yl)-N-((6-(((4-hydroxy-4-methylcyclohexyl)methyl)amino)-5-nitropyridin-3-yl)sulfonyl) benzamide] | ≥ 9.00 | 8.15 | ≥ 9.00
